# From patent publication US20020165283A1, “Preservative blends containing quaternary ammonium compounds” (LONZA INC., priority 2001, published 2002)
# System: S. aureus, P. aeruginosa, and E. coli
# Test: Mixed bacterial challenge of preserved anionic protein shampoo samples (plate counts)
# Format: cell-based
# Description: Each anionic shampoo sample in Table 1 below was tested as follows. A standardized mixed bacterial solution was prepared according to the following procedure. 3 agar stabs of S. aureus (ATCC#6538), P. aeruginosa (ATCC#9027), and E. coli (ATCC #8739) were separately incubated at about 35° C. for about 24 hours. Each stab was then washed with 3 mL of sterile 0.85% saline solution. The washes of the 3 stabs were pooled together to form an organism mixture. The absorbance of the organism mixture at 530 nm was adjusted to about 1.00 by adding saline. The spectrometer was calibrated with a saline blank. A 5 mL aliquot of the organism mixture was mixed together to produce the standardized mixed bacterial solution. Then, 40 g of each shampoo sample was inoculated with 0.2 mL of the standardized mixed bacterial solution and mixed. 1 g of the mixture was added to a sterile 20×150 mm screw cap test tube. 9 mL of sterile D/E neutralizer broth was added to the test tube and mixed to form a 10^−1 dilution,. Serial dilutions were prepared through to a 10^−6 dilution with phosphate buffered water. The serial dilutions were plated onto Tryptic Soy Agar and incubated for 2 days at about 35° C. Bacteria counts were performed after 0 and 14 days.
# The anionic protein shampoo composition was comprised of 35% by weight of sodium lauryl ether sulfate; 25% by weight of triethanolamine lauryl sulfate; 3% by weight coconut diethanolamide (cocamide DEA); 1% by weight of hydrolyzed collagen, available as Polypro 5000™ from Hormel Foods of Austin, Minn.; and 36% by weight of deionized water.
# The sodium dehydroacetate monohydrate, sodium salicylate, and Hyamine® 1622 shampoo samples were prepared by mixing the appropriate amounts of the preservatives and the aforementioned anionic protein shampoo composition and heating the mixture to about 50° C. for about 15 minutes.
# (§1) The procedure described in Example 1 was repeated with the anionic shampoos in Table 3 below. The bacterial counts were performed after 0 and 7 days. The dehydroacetic acid (available from Lonza Inc. of Fair Lawn, N.J.) and Hyamine® 1622 shampoo samples were prepared by mixing the appropriate amounts of the preservatives and the anionic protein shampoo composition and heating the mixture to about 50° C. for about 15 minutes.
# as §1, with “5” for “3”, “salicylic” for “bacterial counts were performed after 0 and 7 days. The dehydroacetic”, “Spectrum Chemical” for “Lonza Inc.”, “New Brunswick,” for “Fair Lawn,”, “for” for “for about”
# [1] = Table 5, 0.2% of preservative alone
# [2] = Table 1, 0.5% by weight of preservative alone
# [3] = Table 1, 1.0% by weight of preservative alone
structure (smiles),measurement,setting,value
"CC(=O)C1C(=O)C=C(C)OC1=O (centres unmarked) [Dehydroacetic Acid, dehydroacetic acid]","S. aureus, P. aeruginosa, and E. coli (cfu/g) Day 0","Table 3, 0.2% of preservative alone",2.5 × 10^6 cfu/g
same,"S. aureus, P. aeruginosa, and E. Coli (cfu/g) Day 7","Table 3, 0.2% of preservative alone, Day 7",4.4 × 10^4 cfu/g
"O=C(O)c1ccccc1O [Salicylic Acid, salicylic acid]","S. aureus, P. aeruginosa, and E. coli (cfu/g) Day 0",[1],3.1 × 10^6 cfu/g
same,"S. aureus, P. aeruginosa, and E. coli (cfu/g) Day 14",[1],6.5 × 10^6 cfu/g
"CC(=O)c1c([O-])cc(C)oc1=O.O.[Na+] [Sodium Dehydroacetate Monohydrate, Sodium dehydroacetate monohydrate]","S. aureus, P. aeruginosa, and E. coli (cfu/g) Day 0",[2],3.0 × 10^6 cfu/g
same,"S. aureus, P. aeruginosa, and E. coli (cfu/g) Day 14",[2],4.0 × 10^3 cfu/g
"O=C([O-])c1ccccc1O.[Na+] [Sodium Salicylate, Sodium salicylate]","S. aureus, P. aeruginosa, and E. coli (cfu/g) Day 0",[3],3.0 × 10^6 cfu/g
same,"S. aureus, P. aeruginosa, and E. coli (cfu/g) Day 14",[3],5.0 × 10^2 cfu/g
